From article PMC5632533, “Mechanisms of action and in vivo antibacterial efficacy assessment of five novel hybrid peptides derived from Indolicidin and Ranalexin against Streptococcus pneumoniae” (PeerJ, 2017)

System: S. pneumoniae (highly virulent strain)
Test: In vivo antipneumococcal activity, pneumococcal bacteremia (lethal systemic infection) model
Set-up: species or system mice
Details: for survival of infected mice up to seven days post-infection: 1.5 × 10^2 CFU/mouse IP, 10 mice; for survival of infected mice, treatment via SC and IN routes: up to seven days post-infection
Protocol: Two pneumococcal infection models developed previously in our lab ([Le et al., 2015]) were used to assess the therapeutic efficacy of peptides in vivo. The systemic infection model was used to mimic pneumococcal bacteremia in humans and the pneumococcal pneumonia model was used to mimic pneumococcal pneumonia in humans. A highly virulent strain was used in both the models. The bacterial isolate was grown overnight on Columbia agar with 5% sheep blood at 37 °C under 5% CO2. The bacterial suspension was adjusted to OD625 0.08-0.1 (1 ∼ 2 × 10^8 CFU/ml). Mice tested for lethal systemic infection were inoculated with 1.5 × 10^2 CFU/mouse (100 μl) via IP route. Mice used to assess the Pneumococcal pneumonia model were inoculated with pneumococcal cells of 5 × 10^3 CFU/mouse (50 μl) via the intrathoracic route.
After 1 hr of inoculation, Mice receiving treatment were randomized and divided into six groups. RN7-IN10 and RN7-IN8 were tested at three different doses for each (5 mg/kg, 10 mg/kg and 20 mg/kg) using a group of 10 mice. Graded doses of ceftriaxone (5 mg/kg, 10 mg/kg, […], 40 mg/kg and 80 mg/kg) were also tested to assess the in vivo antibacterial activity of this antibiotic. Only mice injected with PBS were served as uninfected control. Mice injected with bacterial inoculum were used as untreated control group and given sterile distilled water only. Survival of mice was documented for seven days or until death. After seven days, the experiment was ended, the blood and homogenates of the five major organs (kidney, brain, spleen, liver and lung) of the surviving mice were plated on Columbia agar with 5% sheep blood, to detect the presence of pneumococcal cells. […]

[1] = treatment IP 5 mg/kg (peptides at 1 h, 12 h, 24 h post-infection)
[2] = treatment IP 10 mg/kg (peptides at 1 h, 12 h, 24 h post-infection)
[3] = treatment IP 20 mg/kg (peptides at 1 h, 12 h, 24 h post-infection)

FLGGLIKWKWPWWPWRR-NH2 [RN7-IN10, hybrid peptide of ranalexin (residues 1-7) and indolicidin (residues 4-13)]
survival of infected mice up to seven days post-infection [1]: failed to treat any of the infected mice
survival of infected mice up to seven days post-infection [2]: 10%
survival of infected mice up to seven days post-infection [3]: 30%
survival of infected mice, treatment via SC and IN routes: none of the mice survived

FLGGLIKWPWWPWRR-NH2 [RN7-IN8, hybrid peptide of ranalexin (residues 1-7) and indolicidin (residues 6-13)]
survival of infected mice up to seven days post-infection [1]: failed to treat any of the infected mice
survival of infected mice up to seven days post-infection [2]: 30%
survival of infected mice up to seven days post-infection [3]: 50%
survival of infected mice, treatment via SC and IN routes: none of the mice survived
